Molecules are shown by their SMILES.

The test system of test [1] is patients with moderate to severe rheumatoid arthritis. Put plainly: Randomized, double-blind, placebo-controlled study in rheumatoid arthritis. It is filed as in vivo, human. The conditions noted are these: oral 500 mg capsule once daily for 24 weeks; expected. On the procedure:
Approximately 120 patients, ages 30-65, diagnosed with rheumatoid arthritis according to the 2010 ACR/EULAR classification criteria, are enrolled in a randomized, double-blind, placebo-controlled study to evaluate the efficacy of compound 2 in patients with moderate to severe rheumatoid arthritis. Participants are randomized to receive either oral compound 2 (500 mg capsule) or placebo once daily for a period of 24 weeks. The primary efficacy endpoint is the improvement in the Disease Activity Score-28 (DAS28) with C-reactive protein (CRP) at week 24. A clinically meaningful reduction in DAS28 score is defined as a reduction of ≥1.2 points from baseline. Secondary endpoints include: Improvement in physical function as measured by the Health Assessment Questionnaire Disability Index (HAQ-DI), reduction in morning stiffness and joint pain, and changes in levels of inflammatory cytokines such as TNF-α, IL-6, and IL-1β. […] Additionally, compound 2 is expected to reduce serum levels of pro-inflammatory cytokines and markers of joint damage such as matrix metalloproteinases (MMPs), thus providing evidence of its disease-modifying effects.

The next test relates to Dp16 mice. Put plainly: Dp16 mouse model of Down syndrome challenged with poly(I:C). In kind it is in vivo. The source says:
Waugh et al., “Triplication of the interferon receptor locus contributes to hallmarks of Down syndrome in a mouse model”, Nat. Genet., 55, 1034-1047 (2023), note that the B6.129S7-Dp(16Lipi-Zbtb21)1Yey/J mouse model of DS, sometimes referred to as the Dp16 mouse, carries a segmental duplication of mouse chromosome 16 causing triplication of ˜120 protein-coding genes orthologous to those on human chromosome 21, including the Ifnr cluster; and that Dp16 mice display key phenotypes of DS including hyperactive IFN signaling, a dysregulated antiviral response, increased prevalence of heart defects, developmental delays, cognitive impairments and craniofacial anomalies. The TLR3 agonist polyinosinic-polycytidylic acid, poly(I:C), is an innate immune stimulus known to trigger an IFN response. Three groups of Dp16 mice were dosed from day ˜7 through 10 by gavage at 10 mg/Kg, twice/day for the first 5 days and once/day thereafter, with vehicle (2 groups) or compound 2 in vehicle (1 group), and one of the vehicle groups and the compound 2 group were dosed by injection with poly(I:C) on day 7, while the other vehicle group was given a sham injection. Treatment with compound 2 ameliorated the increased expressions of cytokines, IFNα and […], TNF-α, IL-2, -5, -6, -10, and -12P70, and attenuated the inflammatory response, including ameliorating the skin thickening, induced by Poly(I:C) in these Dp16 mice. Transcriptome analysis of liver samples identified gene sets substantially dysregulated in the Dp16 mice and attenuated by treatment with compound 2; including signatures of increased cell proliferation (E2F targets and G2/M checkpoint), increased JAK/STAT and interferon signaling, and decreased fatty acid metabolism. The genistein phosphate derivatives of this invention are therefore expected to be useful for the treatment of subjects with Down syndrome.

For `O=c1c(-c2ccc(O)cc2)coc2cc(OCOP(=O)(O)O)cc(O)c12` [Compound 2, ((5-Hydroxy-3-(4-hydroxyphenyl)-4-oxo-4H-chromen-7-yl)oxy)methyl dihydrogen phosphate], the “serum levels of pro-inflammatory cytokines” value in test [1] is recorded as “reduce”. In the test on Dp16 mice (10 mg/Kg by gavage), the “inflammatory response induced by Poly(I:C)” value is reported as “attenuated” and the “skin thickening induced by Poly(I:C)” value was “ameliorating”. Also, the “increased expressions of cytokines, IFNα and […], TNF-α, IL-2, -5, -6, -10, and -12P70” value in the test on Dp16 mice (10 mg/Kg by gavage, twice/day first 5 days then once/day, poly(I:C) injection) is “ameliorated”. The “dysregulated liver gene sets (cell proliferation, JAK/STAT and interferon signaling, fatty acid metabolism)” value in the test on Dp16 mice (transcriptome analysis of liver samples) was “attenuated”.

(Values after patent publication US20250170154A1 (GreenStone Biosciences, Inc., priority 2023, published 2025).)
